Experimental data reported in US6902913B2, “Recombinant narbonolide polyketide synthase” (priority 1997, dated 2005).

What was measured:
[1] = biological target: T1, 6-hydroxylase encoded by eryF (Saccharopolyspora erythraea, UniProt Q00441); assay: in vitro 6-hydroxylation by the 6-hydroxylase encoded by eryF; format: biochemical; conditions: 100 pmol hydroxylase, 10 nmol substrate, 90 minutes at 30° C., based on relative total ion counts
T1 construct: made in house; host or cells: E. coli
T1 sequence (Q00441 1-404): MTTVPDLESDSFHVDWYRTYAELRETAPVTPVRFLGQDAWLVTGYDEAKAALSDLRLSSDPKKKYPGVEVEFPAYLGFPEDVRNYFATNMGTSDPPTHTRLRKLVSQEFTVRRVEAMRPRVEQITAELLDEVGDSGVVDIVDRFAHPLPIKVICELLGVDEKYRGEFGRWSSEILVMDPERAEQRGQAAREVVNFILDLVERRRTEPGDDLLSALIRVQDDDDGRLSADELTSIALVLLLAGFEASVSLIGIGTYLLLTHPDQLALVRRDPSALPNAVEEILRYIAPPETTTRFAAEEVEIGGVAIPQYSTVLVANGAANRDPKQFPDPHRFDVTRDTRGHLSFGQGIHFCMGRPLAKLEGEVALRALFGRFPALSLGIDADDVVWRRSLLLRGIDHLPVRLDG
Description: The 6-hydroxylase encoded by eryF was expressed in E. coli, and partially purified. The hydroxylase (100 pmol in 10 μL) was added to a reaction mixture (100 μl total volume) containing 50 mM Tris/HCl (pH 7.5), 20 μM spinach ferredoxin, 0.025 Unit of spinach ferredoxin:NADP^+ oxidoreductase, 0.8 Unit of glucose-6-phosphate dehydrogenase, 1.4 mM NADP^+, 7.6 mM glucose-6-phosphate, and 10 nmol 6-deoxyerythronolide B. The reaction was allowed to proceed for 90 minutes at 30° C. Half of the reaction mixture was loaded onto an HPLC, and the effluent was analyzed by mass spectrometry. The production of erythronolide B as evidenced by a new peak eluting earlier in the gradient and showing [M+H]^+=401. Conversion was estimated at 50% based on relative total ion counts.

picK protein = biological target: T2, picK protein (Streptomyces venezuelae, UniProt O87605, G416S); assay: hydroxylase activity of the picK protein (conversion of narbomycin to picromycin); format: biochemical; conditions: crude supernatant of E. coli BL21-DE3/pKOS023-61, 20 nmol narbomycin, 105 minutes at 30° C., by ELSD peak area
T2 construct: made in house; host or cells: E. coli BL21-DE3
Description: Plasmid pKOS023-61 was transformed into E. coli BL21-DE3. Successful transformants were grown in LB-containing carbenicillin (100 μg/ml) at 37° C. to an OD600 of 0.6. Isopropyl-beta-D-thiogalactopyranoside (IPTG) was added to a final concentration of 1 mM, and the cells were grown for an additional 3 hours before harvesting. The cells were collected by centrifugation and frozen at −80° C. A control culture of BL21-DE3 containing the vector plasmid pET21c (Invitrogen) was prepared in parallel.
The frozen BL21-DE3/pKOS023-61 cells were thawed, suspended in […] of cold cell disruption buffer (5 mM imidazole, 500 mM NaCl, 20 mM Tris/HCl, pH 8.0) and sonicated to facilitate lysis. Cellular debris and supernatant were separated by centrifugation and subjected to SDS-PAGE on 10-15% gradient gels, with Coomassie Blue staining, using a Pharmacia Phast Gel Electrophoresis system. The soluble crude extract from BL21-DE3/pKOS023-61 contained a Coomassie stained band of Mr˜46 kDa, which was absent in the control strain BL21-DE3/pET21c.
The hydroxylase activity of the picK protein was assayed as follows. […] Half of the reaction mixture was loaded onto an HPLC, and the effluent was analyzed by evaporative light scattering (ELSD) and mass spectrometry. […]

| Structure (SMILES) | conversion of 6-deoxyerythronolide B to erythronolide B [1] | conversion of narbomycin to picromycin (picK protein) |
| --- | --- | --- |
| CC[C@H]1OC(=O)[C@H](C)[C@@H](O)[C@H](C)[C@@H](O)[C@@H](C)C[C@@H](C)C(=O)[C@H](C)[C@@H](O)[C@H]1C [6-deoxyerythronolide B] | ~50% |  |
| CC[C@H]1OC(=O)[C@H](C)C(=O)[C@H](C)[C@@H](O[C@@H]2O[C@H](C)C[C@H](N(C)C)[C@H]2O)[C@@H](C)C[C@@H](C)C(=O)/C=C/[C@H]1C [narbomycin] |  | greater than 90% |
